From patent US20050245563A1 (Millennium Pharmaceuticals, Inc., priority 2003, published 2005)

Each compound was assayed against T1, human Chk1 (GST-Chk1) (Homo sapiens, UniProt O14757) (assay: Chk1 DELFIA kinase assay (2 nM GST-Chk1, 600 μM ATP)). Conditions: Biotin-GLYRSPSMPEN-amide substrate.
T1 construct: made in house; host or cells: insect cells (baculovirus, Bac-to-Bac)
T1 sequence (O14757 1-476): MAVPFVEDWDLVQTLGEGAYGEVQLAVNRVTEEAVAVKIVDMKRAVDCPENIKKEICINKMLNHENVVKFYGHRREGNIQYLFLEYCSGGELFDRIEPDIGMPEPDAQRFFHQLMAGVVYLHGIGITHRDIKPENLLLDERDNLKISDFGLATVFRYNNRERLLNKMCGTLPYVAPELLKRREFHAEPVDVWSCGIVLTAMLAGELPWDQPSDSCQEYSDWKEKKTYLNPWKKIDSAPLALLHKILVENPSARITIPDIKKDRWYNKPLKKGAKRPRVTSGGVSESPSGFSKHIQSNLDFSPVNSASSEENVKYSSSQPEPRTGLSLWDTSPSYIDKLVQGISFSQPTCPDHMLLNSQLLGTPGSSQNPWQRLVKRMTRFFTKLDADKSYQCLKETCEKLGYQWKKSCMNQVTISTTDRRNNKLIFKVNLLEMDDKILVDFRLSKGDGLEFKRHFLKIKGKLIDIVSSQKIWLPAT
Assay type: biochemical
Procedure: Recombinant human Chk1 was expressed as a fusion protein with glutathione S-transferase at the amino-terminus (GST-Chk1) using standard baculovirus vectors and (Bac-to-Bac®) insect cell expression system purchased from GIBCO™ Invitrogen. Recombinant protein expressed in insect cells was purified using glutathione sepharose (Amersham Biotech) using standard procedures described by the manufacturer.
Chk1 DELFIA® Kinase Assay:
Assays (25 μL) utilized 2 nM GST-Chk1 containing 10 mM Tris, pH 7.5, 20% glycerol, 50 mM sodium chloride (NaCl), 0.01% Surfact-Amps® 20, 1 μM peptide stubstrate (Biotin-GLYRSPSMPEN-amide) (SEQ ID NO: 3), 01.% BSA, 2 mM DTT, 4% DMSO, 600 μM ATP, 10 MM MgCl2 and reacted for 50 minutes at room temperature. Reactions were terminated with 100 μL of Stop buffer containing 1% BSA, 10 mM Tris, pH 8.0, 150 mM NaCl, 100 mM EDTA. Stopped reactions (100 μL) were transferred to 96 well NeutrAvidin plates (Pierce) to capture the biotin-peptide substrate during a 30 minute room temperature incubation. Wells were washed and reacted with 100 μL PerkinElmer Wallac Assay Buffer containing 21.5 ng/ml anti-phospho-Ser216-Cdc25c rabbit polyclonal antibody from Cell Signaling Technology (Beverly, Mass.) and 292 ng/ml europium labeled anti-rabbit-IgG for 1 hour at room temperature. Wells were washed and europium released from the bound antibody by addition of Enhancement Solution (100 μL) (PerkinElmer Wallac) and detected using a Perkin Elmer Wallac Envison™ 2100 multilabel reader using standard manufacturer settings.

Question: `Cc1[nH]nc2c1c(=O)n(C[C@H](C)CN)c1ccc(F)cc21` (stereo in doubt) [Compound 202, 5-(3-Amino-2-methyl-propyl)-8-fluoro-3-methyl-2,5-dihydro-pyrazolo[4,3-c]quinolin-4-one] was tested. Which IC50 did it give?
Answer: < 1 µM

Question: For `Cc1[nH]nc2c1c(=O)n(CCCN)c1ccc(F)cc21` [Compound 203, 5-(3-Amino-propyl)-8-fluoro-3-methyl-2,5-dihydro-pyrazolo[4,3-c]quinolin-4-one], which IC50 is on record?
Answer: < 1 µM

Question: With `COCCc1[nH]nc2c1c(=O)n(CCCN)c1ccc(F)cc21` [Compound 205, 5-(3-Amino-propyl)-8-fluoro-3-(2-methoxy-ethyl)-2,5-dihydro-pyrazolo[4,3-c]quinolin-4-one] as the compound, how does the IC50 read?
Answer: < 1 µM

Question: For `COCCc1[nH]nc2c1c(=O)n(CCCN)c1ccc(Cl)cc21` [Compound 206, 5-(3-Amino-propyl)-8-chloro-3-(2-methoxyethyl)-2,5-dihydro-pyrazolo[4,3-c]quinolin-4-one], which IC50 is on record?
Answer: < 1 µM

Question: With `Cc1[nH]nc2c1c(=O)n(CCCN)c1ccc(I)cc21` [Compound 208, 5-(3-Amino-propyl)-8-iodo-3-methyl-2,5-dihydro-pyrazolo[4,3-c]quinolin-4-one] as the compound, how does the IC50 read?
Answer: < 1 µM

Question: For `Cc1[nH]nc2c1c(=O)n(CCCO)c1ccc(Cl)cc21` [Compound 209, 8-Chloro-5-(3-hydroxy-propyl)-3-methyl-2,5-dihydro-pyrazolo[4,3-c]quinolin-4-one], which IC50 is on record?
Answer: < 1 µM

Question: With `Cc1[nH]nc2c1c(=O)n(CC[C@H]1CCCCN1)c1ccc(Cl)cc21` [Compound 213, 8-Chloro-3-methyl-5-(2R-piperidin-2-yl-ethyl)-2,5-dihydro-pyrazolo[4,3-c]quinolin-4-one] as the compound, how does the IC50 read?
Answer: < 1 µM

Question: With `Cc1[nH]nc2c1c(=O)n(CCC(C)N)c1ccc(Cl)cc21` (stereo not shown) [Compound 216, 5-(3-Amino-butyl)-8-chloro 3-methyl-2,5-dihydro-pyrazolo[4,3-c]quinolin-4-one] as the compound, how does the IC50 read?
Answer: < 1 µM

Question: Which IC50 does the source give for `Cc1[nH]nc2c1c(=O)n(CCC(O)Cn1ccnc1)c1ccc(Cl)cc21` (stereo not shown) [Compound 252, 8-Chloro-5-(3-hydroxy-4-imidazol-1-yl-butyl)-3-methyl-2,5-dihydro-pyrazolo[4,3-c]quinolin-4-one] here?
Answer: < 1 µM

Question: `Cc1[nH]nc2c1c(=O)n(CCCNC(=N)N)c1ccc(Cl)cc21` [Compound 253, N-[3-(8-Chloro-3-methyl-4-oxo-2,4-dihydro-pyrazolo[4,3-c]quinolin-5-yl)-propyl]-guanidine] was tested. Which IC50 did it give?
Answer: < 1 µM

Question: Which IC50 does the source give for `Cc1[nH]nc2c1c(=O)n(CCCN)c1ccc(C(=O)O)cc21` [Compound 266, 5-(3-Amino-propyl)-3-methyl-4-oxo-4,5-dihydro-2H-pyrazolo[4,3-c]quinoline-8-carboxylic acid] here?
Answer: 1 to 10 µM

Question: Which IC50 does the source give for `COC(=O)/C=C/c1ccc2c(c1)c1n[nH]c(C)c1c(=O)n2CCCN` [Compound 267, 3-[5-(3-Amino-propyl)-3-methyl-4-oxo-4,5-dihydro-2H-pyrazolo[4,3-c]quinolin-8-yl]-acrylic acid methyl ester] here?
Answer: < 1 µM

Question: `COC(=O)CCc1ccc2c(c1)c1n[nH]c(C)c1c(=O)n2CCCN` [Compound 268, 3-[5-(3-Amino-propyl)-3-methyl-4-oxo-4,5-dihydro-2H-pyrazolo[4,3-c]quinolin-8-yl]-propionic acid methyl ester] was tested. Which IC50 did it give?
Answer: < 1 µM

Question: Which IC50 does the source give for `Cc1[nH]nc2c1c(=O)n(CCCN)c1ccc(CCC(=O)O)cc21` [Compound 269, 3-[5-(3-Aminopropyl)-3-methyl-4-oxo-4,5-dihydro-2H-pyrazolo[4,3-c]quinolin-8-yl]-propionic acid] here?
Answer: 1 to 10 µM

Question: `NCCCn1c(=O)c2c(CCO)[nH]nc2c2cc(Cl)ccc21` [Compound 316, 5-(3-Amino-propyl)-8-chloro-3-(2-hydroxy-ethyl)-2,5-dihydro-pyrazolo[4,3-c]quinolin-4-one] was tested. Which IC50 did it give?
Answer: < 1 µM

Question: `COC(C)Cc1[nH]nc2c1c(=O)n(CCCN)c1ccc(Cl)cc21` (stereo not shown) [Compound 324, 5-(3-Amino-propyl)-8-chloro-3-(2-methoxy-propyl)-2,5-dihydro-pyrazolo[4,3-c]quinolin-4-one] was tested. Which IC50 did it give?
Answer: 1 to 10 µM

Question: `CC(C)c1[nH]nc2c1c(=O)n(CCCN)c1ccc(Cl)cc21` [Compound 325, 5-(3-Amino-propyl)-8-chloro-3-isopropyl-2,5-dihydro-pyrazolo[4,3-c]quinolin-4-one] was tested. Which IC50 did it give?
Answer: < 1 µM

Question: With `COC(=O)c1ccc2c3n[nH]c(C)c3c(=O)n(CCCN)c2c1` [Compound 334, 5-(3-Amino-propyl)-3-methyl-4-oxo-4,5-dihydro-2H-pyrazolo[4,3-c]quinoline-7-carboxylic acid methyl ester] as the compound, how does the IC50 read?
Answer: 1 to 10 µM

Question: For `Cc1[nH]nc2c1c(=O)n(C)c1c(CCCN)cc(Cl)cc21` [Compound 343, 6-(3-Amino-propyl)-8-chloro-3,5-dimethyl-2,5-dihydro-pyrazolo[4,3-c]quinolin-4-one], which IC50 is on record?
Answer: 1 to 10 µM

Question: For `Cc1[nH]nc2c1c(=O)n(C)c1c(C#CCO)cc(Cl)cc21` [Compound 344, 8-Chloro-6-(3-hydroxy-prop-1-ynyl)-3,5-dimethyl-2,5-dihydro-pyrazolo[4,3-c]quinolin-4-one], which IC50 is on record?
Answer: 1 to 10 µM

Question: With `Cc1[nH]nc2c1c(=O)n(C)c1c(C#CCCN)cc(Cl)cc21` [Compound 345, 6-(4-amino-but-1-ynyl)-8-chloro-3,5-dimethyl-2,5-dihydro-pyrazolo[4,3-c]quinolin-4-one] as the compound, how does the IC50 read?
Answer: < 1 µM

Question: `Cc1[nH]nc2c1c(=O)n(CCCN)c1c([N+](=O)[O-])cc(Cl)cc21` [Compound 347, 5-(3-Amino-propyl)-8-chloro-3-methyl-6-nitro-2,5-dihydro-pyrazolo[4,3-c]quinolin-4-one] was tested. Which IC50 did it give?
Answer: 1 to 10 µM

Question: Which IC50 does the source give for `Cc1[nH]nc2c1c(=O)n(CCCN)c1c(N)cc(Cl)cc21` [Compound 348, 6-Amino-5-(3-amino-propyl)-8-chloro-3-methyl-2,5-dihydro-pyrazolo[4,3-c]quinolin4-one] here?
Answer: < 1 µM

Question: Which IC50 does the source give for `Cc1[nH]nc2c1c(=O)n(CCCN)c1c(Br)cc(Cl)cc21` [Compound 349, 5-(3-Amino-propyl)-6-bromo-8-chloro-3-methyl 2,5-dihydro-pyrazolo[4,3-c]quinolin-4-one] here?
Answer: < 1 µM

Question: `Cc1[nH]nc2c1c(=O)n(CCCN)c1ccc(NC(=O)CCN)cc21` [Compound 357, 3-Amino-N-[5-(3-amino-propyl)-3-methyl-4-oxo-4,5-dihydro-2H-pyrazolo[4,3-c]quinolin-8-yl]-propionamide] was tested. Which IC50 did it give?
Answer: < 1 µM

Question: `Cc1[nH]nc2c1c(=O)n(CCCN)c1ccc(-c3ccncc3)cc21` [Compound 358, 5-(3-Amino-propyl)-3-methyl-8-pyridin-4-yl-2,5-dihydro-pyrazolo[4,3-c]quinolin-4-one] was tested. Which IC50 did it give?
Answer: < 1 µM

Question: For `C#Cc1ccc2c(c1)c1n[nH]c(CC)c1c(=O)n2CCCN` [Compound 360, 5-(3-Amino-propyl)-3-ethyl-8-ethynyl-2,5-dihydro-pyrazolo[4,3-c]quinolin-4-one], which IC50 is on record?
Answer: < 1 µM

Question: Which IC50 does the source give for `Cc1[nH]nc2c1c(=O)n(CC[C@@H](C)N)c1ccc(Cl)cc21` [Example 217, 5-(3R-Amino-butyl)-8-chloro 3-methyl-2,5-dihydro-pyrazolo[4,3-c]quinolin-4-one] here?
Answer: < 1 µM

Question: For `COCCc1[nH]nc2c1c(=O)n(CCC(C)N)c1ccc(Cl)cc21` (stereo not shown) [Example 219], which IC50 is on record?
Answer: < 1 µM

Question: How did the IC50 turn out when `Cc1[nH]nc2c1c(=O)n(C[C@@H](C)CN)c1ccc(Cl)cc21` [Example 220, 5-(3-Amino-2S-methyl-propyl)-8-chloro-3-methyl-2,5-dihydro-pyrazolo[4,3-c]quinolin-4-one] was run?
Answer: < 1 µM

Question: For `Cc1[nH]nc2c1c(=O)n(C[C@H](C)CN)c1ccc(Cl)cc21` [Example 221, 5-(3-Amino-2R-methyl-propyl)-8-chloro-3-methyl-2,5-dihydro-pyrazolo[4,3-c]quinolin-4-one], which IC50 is on record?
Answer: < 1 µM

Question: With `COCCc1[nH]nc2c1c(=O)n(C[C@@H](C)CN)c1ccc(Cl)cc21` [Example 222, 5-(3-Amino-2S-methyl-propyl)-8-chloro-3-(2-methoxy-ethyl)-2,5-dihydro-pyrazolo[4,3-c]quinolin-4-one] as the compound, how does the IC50 read?
Answer: < 1 µM

Question: How did the IC50 turn out when `COCCc1[nH]nc2c1c(=O)n(C[C@H](C)CN)c1ccc(Cl)cc21` [Example 223, 5-(3-Amino-2R-methyl-propyl)-8-chloro-3-(2-methoxy-ethyl)-2,5-dihydro-pyrazolo[4,3-c]quinolin-4-one] was run?
Answer: < 1 µM

Question: For `Cc1[nH]nc2c1c(=O)n(C[C@@H]1CCCNC1)c1ccc(Cl)cc21` [Example 224, 8-Chloro-3-methyl-5R-piperidin-3-ylmethyl-2,5-dihydro-pyrazolo[4,3-c]quinolin-4-one], which IC50 is on record?
Answer: < 1 µM
